A short description of this assay: Taste panel: intensity of umami and salt taste of solution B compared with reference solution A. The settings on record: 10 ppm in a solution of 0.5% NaCl and 0.03% MSG, compared with solution A without compound; average rating of 4 flavourists; scale -3 (much lower than base) to 3 (much higher than base), 0 = same as base, 1 = slightly higher than base. The method, then:
Two solutions were prepared:
A a solution of 0.5% NaCl and 0.03% MSG
B a solution of 0.5% NaCl and 0.03% MSG and 10 ppm Example 1 compound
The samples were tasted by a small group of flavourists (2 male, 2 female, aged between 30 and 60). The intensity of the umami and salt taste of solution B was compared with that of the reference (solution A) and rated according to the following intensity scale:
Taste effect much lower than base: −3
Taste effect lower than base: −2
Taste effect slightly lower than base: −1
Taste effect same as base: 0
Taste effect slightly higher than base: 1
Taste effect higher than base: 2
Taste effect much higher than base: 3
The results (average of rating given by the flavourists) were: […]

`CC(N)(CCC(=O)O)C(=O)O` (racemic) [DL-2-methylglutamic acid, DL-2-Methylglutamic Acid]: the “Intensity Taste Salt (NaCl)” value is 1.00 and the “Intensity Taste Umami” value stood at 0.00.

The values above are taken from US20140287120A1, “ORGANIC COMPOUNDS” (Givaudan S.A, priority 2011, published 2014).
